Data set [1] has as its system ROS 17/2.8 cells. The experiment in a line: Apoptosis of ROS 17/2.8 cells on exposure to TRAP (morphology, alkaline phosphatase stain). Format: cell-based. Conditions: 0.1% DMSO, then TRAP 5 ug/mL. An excerpt:
DMSO, at this low concentration, itself won't cause any toxic effect on cells but can scavenge most of reactive oxygen species. […] Therefore, the TRAP-induced cell apoptosis is not due to a reactive oxygen species effect.

Data set [2] deals with D14 primary osteoblasts. The experiment in a line: OPG sandwich ELISA. As to conditions: following treatment. Format: cell-based. As for the experimental part: OPG is the deccoy receptor for the RNAKL and stop the osteoclastogenesis. RANKL and OPG has been proposed for the regulation of osteoclast differentiation function. Both OPG and RANKL can themselves also be regulated by TGF-β (MacDonald R G, Science 239:1134-7, (1988)). […] This lower the secretion amount of OPG the less the protection afforded from the osteoclast.
(§1) After incubation, the plates were washed with PBS-Tween.
(In general: ELISA stands for enzyme-linked immunosorbent assay.)

The test system of data set [3] is P3TP-Lux reporter in MG-63 cells. The experiment in a line: P3TP-Lux Smad 2,3 reporter in osteoblast cell lines. Format: cell-based, human. The source says:
P3TPLux is a Smad 2, 3 sensitive reporter. […] Co-transfection of the cells with a dominant negative TGFβ type II receptor blocks all TRAP and TGFβ signaling. Each bar is the mean of at least four determinations±SEM. * p 0.05 and ** p 0.01 as compared to control. The data for MG-63 cells are shown. The data for the SaOS2 cells are the same (data not shown).
The data with the MG-63 cell is what is shown.

Data set [4] has as its system isolated osteoblasts. The experiment in a line: Osteoblast phenotypic markers (alkaline phosphatase, Runx2, OPG, collagen). Format: cell-based, rat. As to conditions: TRAP 10 μg/ml, TGFβ 2 ng/ml; percent of control, FIG. 14. As for the experimental part:
The qualitative pattern of stimulation by TRAP and TGFβ for markers of osteoblast differentiation is similar. […] Alkaline phosphatase (Alk. Phos.) was measured in a direct biochemical assay. Runx2 and osteoprotegerin (OPG) were quantified in an ELISA assay using commercially available antibodies. Collagen was measured by determining the amount of collagenase-digestible protein present in pre-labeled osteoblasts (34). All data are expressed as a percent of the control, untreated cells. All data points are the mean±one SEM. * p 0.05. ** p 0.01.
Isolated osteoblasts were prepared from neo-natal rat calvaria as previously described (Martinez D A, et al., J. Cellular Biochemistry 59: 246-257 (1995)). Alkaline phosphatase assays and standard Western analyses were performed as previously described (Ionescu A M. ET AL., Journal of Biological Chemistry. 276:11639-47 (2001)).
as §1
Osteoblast differentiation at sites of bone remodeling is mediated by a number of regulatory factors. One of the key factors is TGFβ. In most systems, including the typically the disclosed system, TGFβ is known to be a potent enhancer of the osteoblast phenotype.

In data set [5] the test system is SW408 cells. The experiment in a line: P3TP-Lux reporter in Smad4 deficient cells. Format: cell-based. The source says:
SW408 cells are deficient in Smad4, a requisite co-factor for Smad2 and 3 signaling. […] However, when the cells are transfected with both Smad4 and TRIP-1, restoration of Smad signaling can occur. All values are the mean±SEM. * p 0.05 and ** p 0.01 as compared to control.

For data set [6], the system named is TGFβ reporter construct (P3TPlux). The experiment in a line: P3TP lux TGFβ reporter in transfected osteoblasts. Format: cell-based. As to conditions: FIG. 9. As for the experimental part: Note the difference in scales. N=4-6.
Functionality of TRIP for TGFβ signaling was determined by measuring the activation of a TGFβ promoter/reporter construct, P3TP Lux (see Experimental Design for a complete description of this construct).
Osteoblasts, cultured at 30-40% confluence in 6-well plates, are transfected on day 2 after plating using the transfection reagent Superfect (Qiagen Santa Clarita, Calif.) according to the manufacturer's guidelines. Individual experiments are internally controlled for amount of total plasmid DNA, with equal amounts of p3TP-Lux reporter, control SV40-renilla plasmid for normalization of transfection efficiency, and target construct and/or vector control DNA for all co-transfection experiments. Following transfection, the cells are placed in media containing DMEM, Penicillin/Streptomycin, and 10% NuSerum IV. After 12 hours, they are incubated for 6 hours in serum-free media (containing DMEM, hyaluronidase 4 U/ml, Penicillin/Streptomycin, and supplemented with 10 pM triiodothyronine (Sigma, St. Louis, Mo.), 60 ng/ml insulin, and 1 mM cysteine (Sigma, St. Louis, Mo.)) plus the factor or cytokine of interest. Eighteen hours later, the cells are harvested and assayed for luciferase activity using the Promega dual luciferase assay system. Renilla luciferase values were used to normalize each sample for transfection efficiency.

The test system of data set [7] is rat calvarial osteoblasts after 14 days of culture. The experiment in a line: Cleaved caspase 3 and cleaved PARP levels. Format: cell-based. As to conditions: day 14 cells, FIGS. 24 and 25.
Excerpt: Biochemical confirmation of the effect of TRAP on osteoblast apoptosis was obtained by assaying levels of caspase-3 and poly ADP-ribose polymerase (PARP) in these cells lines. […] Thus, another indicator of a cells progression through apoptosis is a measurement of its cleaved caspase 3 levels. Similarly, poly ADP-ribose polymerase is a substrate for active caspase 3 and increased levels of cleave PARP are indicative of an active caspase.
Data set [8] has as its target T1, TGFβRII, HIS-TRIP and Smad 2 (Homo sapiens, UniProt Q13347).
T1 construct: expressed in transfected cells; host or cells: 293T cells transfected with TGFβRII and His-TRIP-1; Smad 2 endogenous
The experiment in a line: GST-TRAP pull-down of receptor complex from transfected 293T cells. Format: binding. Conditions: exogenous GST-TRAP 12 hours. An excerpt:
293T cells were transfected with TGFβRII. Some of these cells were then co-transfected with a “His”-tagged TRIP-1 (His-TRIP-1). In lane A, in which both the receptor and TRIP-1 were present, but GST-TRAP was not added, no parts of the complex could be “pulled down” with glutathione coated beads. The same was true if His-TRIP-1 was not transfected into the cells. However, if the receptor, TRIP-1 and GST-TRAP were all present, a protein complex composed of the receptor, TRIP-1 and Smad 2 could be extracted with glutathione coated beads.
GST-TRAP and GST-TRIP fusion proteins, and GST control protein were purified as instructed by the manufacturer (Amersham Pharmacia). Briefly, plasmids containing GST-fusion protein expressing cDNA were transformed into a BL21DE3)pLysS bacteria strain and selected for ampicillin and chloramphenicol resistant colonies. Selected colonies were grown in LB medium at 30° C. until OD600 reached 0.6 to 1. Then 0.1 mM IPTG was added to medium for 3 hours. Bacteria were lysed by B-PER (Pierce) with 1 mM PMSF. Lysed bacteria were spun down and the supernatants were collected. […]
Detection of HIS-TRIP was performed with anti-HIS antibodies and detection of the TGFβRII and Smad 2 were performed with a commercially available antibodies. […] The beads were extensively washed and the proteins interacting with the beads were analyzed with Western analysis.

T1 sequence (Q13347 whole entry): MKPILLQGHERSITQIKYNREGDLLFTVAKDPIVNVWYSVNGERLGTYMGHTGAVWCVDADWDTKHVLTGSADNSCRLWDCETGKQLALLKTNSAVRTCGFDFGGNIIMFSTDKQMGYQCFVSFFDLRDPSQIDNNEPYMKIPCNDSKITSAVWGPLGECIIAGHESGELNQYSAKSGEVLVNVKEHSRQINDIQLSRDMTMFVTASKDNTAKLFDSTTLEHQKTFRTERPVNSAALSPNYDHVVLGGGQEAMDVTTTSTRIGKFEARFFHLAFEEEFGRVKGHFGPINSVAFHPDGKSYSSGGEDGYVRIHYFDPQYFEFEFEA
T1 sequence (P37173 23-567 partner): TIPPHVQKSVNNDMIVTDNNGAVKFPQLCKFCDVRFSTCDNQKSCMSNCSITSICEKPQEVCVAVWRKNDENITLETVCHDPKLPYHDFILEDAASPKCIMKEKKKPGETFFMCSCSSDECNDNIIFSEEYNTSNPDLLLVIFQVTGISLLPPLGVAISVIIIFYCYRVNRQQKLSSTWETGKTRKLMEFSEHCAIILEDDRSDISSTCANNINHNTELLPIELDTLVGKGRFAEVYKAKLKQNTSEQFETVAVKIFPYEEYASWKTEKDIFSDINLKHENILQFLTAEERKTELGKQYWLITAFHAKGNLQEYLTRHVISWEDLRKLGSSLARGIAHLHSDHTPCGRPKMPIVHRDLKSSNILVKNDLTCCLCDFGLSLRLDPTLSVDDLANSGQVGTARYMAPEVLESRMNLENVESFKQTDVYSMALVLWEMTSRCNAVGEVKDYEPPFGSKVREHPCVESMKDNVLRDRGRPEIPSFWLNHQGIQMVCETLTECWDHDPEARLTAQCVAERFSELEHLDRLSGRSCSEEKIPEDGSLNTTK
T1 sequence (Q15796 2-467 partner limits assumed): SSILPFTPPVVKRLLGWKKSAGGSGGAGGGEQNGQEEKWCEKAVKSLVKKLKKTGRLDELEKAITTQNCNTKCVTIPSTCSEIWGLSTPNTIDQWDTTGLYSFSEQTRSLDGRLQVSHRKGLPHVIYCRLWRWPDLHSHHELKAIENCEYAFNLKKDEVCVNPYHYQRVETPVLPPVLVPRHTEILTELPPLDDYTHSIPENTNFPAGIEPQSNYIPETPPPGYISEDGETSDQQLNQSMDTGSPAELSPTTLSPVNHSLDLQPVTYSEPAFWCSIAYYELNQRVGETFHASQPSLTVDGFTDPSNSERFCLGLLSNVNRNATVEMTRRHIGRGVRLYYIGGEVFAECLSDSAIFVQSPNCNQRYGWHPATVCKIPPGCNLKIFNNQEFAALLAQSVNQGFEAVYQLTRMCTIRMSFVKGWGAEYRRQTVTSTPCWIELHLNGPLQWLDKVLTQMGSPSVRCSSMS

`C[S+](C)[O-]` [DMSO]: in data set [1], the “protection from apoptosis induced by TRAP” value is “did not protect cells from apoptosis induced by TRAP”.

For the molecule TGFβ, in data set [2], the “level of OPG” value was “less Osteoprotegrin (OPG) production”. Moreover, the “P3TP-Lux activation with co-transfected dominant negative type II TGFβ receptor” value in data set [3] was “block both TGFβ and TRAP activation of the pathway”. Also, the “upregulation of P3TP-Lux reporter gene” value in data set [3] (TRAP 10 μg/ml, TGFβ 5 ng/ml, MG-63 shown, SaOS2 the same) is listed as “strongly upregulate a reporter gene”. For the same molecule, in data set [4], the “effect on alkaline phosphatase activity, Runx 2, OPG and collagen protein synthesis” value is “an increase in alkaline phosphatase activity, and an increase in Runx 2, osteoprotegerin (OPG) and collagen protein synthesis”. Moreover, in data set [5], the “activation of reporter gene in Smad4 deficient cells” value is on record as “neither TGFβ nor TRAP could activate the reporter gene”. Also, the “signaling after restoration of Smad4 and TRIP-1 protein” value in data set [5] (cells transfected with Smad4 and TRIP-1) was “restores TGFβ and TRAP signaling”. Moreover, in data set [6], the “activation of P3TP lux” value is “strongly activate P3TP lux”.

B1: GST-TRAP: recombinant fusion protein of GST and TRAP, non-glycosyl protein made in bacteria (protein)
chain: ATPALRFVAVGDWGGVPNAPFHTAREMANAKEIARTVQILGADFILSLGDNFYFTGVQDINDKRFQETFEDVFSDRSLRKVPWYVLAGNHDHLGNVSAQIAYSKISKRWNFPSPFYRLHFKIPQTNVSVAIFMLDTVTLCGNSDDFLSQQPERPRDVKLARTQLSWLKKQLAAAREDYVLVAGHYPVWSIAEHGPTHCLVKQLRPLLATYGVTAYLCGHDHNLQYLQDENGVGYVLSGAGNFMDPSKRHQRKVPNGYLRFHYGTEDSLGGFAYVEISSKEMTVTYIEASGKSLFKTRLPRRARP
modifications: left off: a dimerising Fc or GST
notes: recombinant fusion protein of GST and TRAP, non-glycosyl protein made in bacteria
In the case of B1, in data set [7], the “cleaved caspase 3 and cleaved PARP” value is “have the same effect on the cells”. Moreover, the “proteins pulled down with glutathione beads” value in data set [8] is “the complex of the TGFβRII, HIS-TRIP and Smad 2 can be extracted and detected”.

For the origin of these results see patent US7241732B2, “Compositions and methods involved in bone growth” (University of Rochester, priority 2001, dated 2007).
